Experimental data from PubChem BioAssay (NCI).
Where “and” joins values, the source holds several entries; their conditions need not be identical. Equal entries are not always repeated.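 Values below derive from 48-hour exposures of cells grown in 96-well plates, with endpoints linearly interpolated between the two concentrations bracketing the appropriate inhibition level. Here, GI50 denotes the concentration required for 50% inhibition of growth. At the TGI there is no net growth.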

Key:
Test in all cases: growth of human tumour cells (NCI), 48 h
SK-MEL-5 melanoma = system: SK-MEL-5 melanoma
A498 renal = system: A498 renal
PC-3 prostate = system: PC-3 prostate
OVCAR-3 ovarian = system: OVCAR-3 ovarian
OVCAR-4 ovarian = system: OVCAR-4 ovarian
ACHN renal = system: ACHN renal
OVCAR-5 ovarian = system: OVCAR-5 ovarian
SNB-19 CNS = system: SNB-19 CNS
SNB-75 CNS = system: SNB-75 CNS
LOX IMVI melanoma = system: LOX IMVI melanoma

## C[C@@H]1CC[C@H]2C(COCC3=C(C(F)(F)F)O[C@@H]4O[C@@]5(C)CC[C@H]6[C@H](C)CC[C@@H]3[C@@]46OO5)=C(C(F)(F)F)O[C@@H]3O[C@@]4(C)CC[C@@H]1[C@]32OO4
SK-MEL-5 melanoma
  GI50: 0.0109 µM
  TGI: > 100 µM
A498 renal
  GI50: 32.7 µM
  TGI: > 100 µM
PC-3 prostate
  GI50: < 0.01 µM
  TGI: > 100 µM
OVCAR-3 ovarian
  GI50: 0.0365 µM
  TGI: > 100 µM
OVCAR-4 ovarian
  GI50: 0.0251 µM
  TGI: > 100 µM
ACHN renal
  GI50: 0.028 µM
  TGI: > 100 µM
OVCAR-5 ovarian
  GI50: 0.0101 µM
  TGI: > 100 µM

## Cc1nn(-c2ccc(S(=O)(=O)[O-])cc2)c([O-])c1N=[N+](C)c1ccc(-c2ccc(N=Nc3ccc4c(S(=O)(=O)[O-])cc(S(=O)(=O)[O-])c(N)c4c3[O-])c([O-])c2)cc1[O-].[Cu+2].[Cu+2].[Na+]
SNB-19 CNS
  GI50: > 100 µM
  TGI: > 100 µM
SK-MEL-5 melanoma
  GI50: > 100 µM
  TGI: > 100 µM
A498 renal
  GI50: > 100 µM
  TGI: > 100 µM
PC-3 prostate
  GI50: > 100 µM
  TGI: > 100 µM
OVCAR-3 ovarian
  GI50: > 100 µM
  TGI: > 100 µM
OVCAR-4 ovarian
  GI50: > 100 µM
  TGI: > 100 µM
ACHN renal
  GI50: > 100 µM
  TGI: > 100 µM
OVCAR-5 ovarian
  GI50: > 100 µM
  TGI: > 100 µM
SNB-75 CNS
  GI50: > 100 µM
  TGI: > 100 µM

## O=C1NC(c2ccc(O)cc2)C2CCC1C2 (stereo unspecified)
SNB-19 CNS
  TGI: > 100 µM
SK-MEL-5 melanoma
  TGI: > 100 µM
A498 renal
  TGI: > 100 µM
OVCAR-3 ovarian
  TGI: > 100 µM
OVCAR-4 ovarian
  TGI: > 100 µM
ACHN renal
  TGI: > 100 µM
OVCAR-5 ovarian
  TGI: > 100 µM
SNB-75 CNS
  TGI: > 100 µM

## O=[N+]([O-])[C@@H]1C2C=CC(C2)[C@H]1Cl (stereo partly specified)
SNB-19 CNS
  TGI: > 100 µM
SK-MEL-5 melanoma
  TGI: > 100 µM
A498 renal
  TGI: > 100 µM
OVCAR-3 ovarian
  TGI: > 100 µM
LOX IMVI melanoma
  TGI: > 100 µM
OVCAR-4 ovarian
  TGI: > 100 µM
ACHN renal
  TGI: > 100 µM
OVCAR-5 ovarian
  TGI: > 100 µM
SNB-75 CNS
  TGI: > 100 µM

## O=C(C#Cc1c[nH]c(=O)[nH]c1=O)c1ccccc1Cl
SNB-19 CNS
  TGI: > 100 µM
SK-MEL-5 melanoma
  TGI: 28.8 µM
A498 renal
  TGI: 36.3 µM
OVCAR-3 ovarian
  TGI: 27.3 µM
LOX IMVI melanoma
  TGI: 26.7 µM
OVCAR-4 ovarian
  TGI: 31.1 µM
ACHN renal
  TGI: 33.1 µM
OVCAR-5 ovarian
  TGI: 34 µM
SNB-75 CNS
  TGI: 39.6 µM

## COc1ccc2cc1Oc1ccc(cc1)C[C@H]1c3cc(c(OC)cc3CCN1C)Oc1c(OC)c(OC)cc3c1[C@H](C2)N(C)CC3
SNB-19 CNS
  GI50: 7.55 µM
  TGI: 13 µM and 20.1 µM and 60.6 µM
SK-MEL-5 melanoma
  GI50: 3.94 µM
  TGI: 11.8 µM and 13.8 µM and > 100 µM
A498 renal
  GI50: 5.98 µM
  TGI: 13.2 µM and 19.2 µM and > 100 µM
OVCAR-3 ovarian
  GI50: 11.8 µM
  TGI: 15.7 µM and 28.7 µM
OVCAR-4 ovarian
  GI50: 12.4 µM
  TGI: 11.1 µM and 28.5 µM
ACHN renal
  TGI: 15.4 µM and 27.2 µM and 40 µM
SNB-75 CNS
  GI50: 2.77 µM
  TGI: 13.4 µM and 10.3 µM and > 100 µM

## COc1ccc(/C=C/C=C(/C#N)C(N)=S)cc1
SNB-19 CNS
  GI50: 26.2 µM
  TGI: > 100 µM
SK-MEL-5 melanoma
  GI50: 18.3 µM
  TGI: 36.4 µM
A498 renal
  GI50: 25.1 µM
  TGI: 56.5 µM
OVCAR-3 ovarian
  GI50: 15.5 µM
  TGI: 42.7 µM
LOX IMVI melanoma
  GI50: 16 µM
  TGI: 37.4 µM
OVCAR-4 ovarian
  GI50: 27.9 µM
  TGI: > 100 µM
ACHN renal
  GI50: 24.6 µM
  TGI: 49.9 µM
OVCAR-5 ovarian
  GI50: 34.3 µM
  TGI: 95.8 µM
SNB-75 CNS
  GI50: 29.7 µM
  TGI: 99.6 µM

## C1COCCN1.C1COCCN1.N.N.[Cl-].[Pt+2]
SNB-19 CNS
  GI50: > 100 µM
  TGI: > 100 µM
SK-MEL-5 melanoma
  GI50: > 100 µM
  TGI: > 100 µM
OVCAR-3 ovarian
  GI50: > 100 µM
  TGI: > 100 µM
LOX IMVI melanoma
  GI50: > 100 µM
  TGI: > 100 µM
OVCAR-4 ovarian
  GI50: > 100 µM
  TGI: > 100 µM
OVCAR-5 ovarian
  GI50: > 100 µM
  TGI: > 100 µM
SNB-75 CNS
  GI50: > 100 µM
  TGI: > 100 µM

## Cc1ccc(-c2c(N)nc(NC#N)nc2CCC(=O)Nc2ccccc2[N+](=O)[O-])cc1
SNB-19 CNS
  TGI: > 100 µM
SK-MEL-5 melanoma
  TGI: > 100 µM
A498 renal
  TGI: > 100 µM
OVCAR-3 ovarian
  TGI: > 100 µM
LOX IMVI melanoma
  TGI: > 100 µM
OVCAR-4 ovarian
  TGI: > 100 µM
ACHN renal
  TGI: > 100 µM
OVCAR-5 ovarian
  TGI: > 100 µM
SNB-75 CNS
  TGI: > 100 µM

## COc1cc2c(c3c1C=CCO3)C(=O)c1ccccc1C2=O
SNB-19 CNS
  TGI: > 100 µM
SK-MEL-5 melanoma
  TGI: 78.6 µM
OVCAR-3 ovarian
  TGI: > 100 µM
LOX IMVI melanoma
  TGI: 78.6 µM
ACHN renal
  TGI: > 100 µM
OVCAR-5 ovarian
  TGI: > 100 µM
SNB-75 CNS
  TGI: > 100 µM

## CCCCCCCCCCCCC(=O)OC(c1cnco1)c1nc(C(O)CC(O)C(O)C(C)O)co1 (stereo unspecified)
SNB-19 CNS
  TGI: > 100 µM
SK-MEL-5 melanoma
  GI50: 1.45 µM
  TGI: 9.66 µM and 6.95 µM
A498 renal
  TGI: > 100 µM
OVCAR-3 ovarian
  GI50: 4.61 µM
  TGI: > 100 µM
LOX IMVI melanoma
  GI50: 0.735 µM
  TGI: > 42.4 µM
OVCAR-4 ovarian
  GI50: 2.02 µM
  TGI: 91.5 µM
ACHN renal
  GI50: 6.38 µM
  TGI: > 71.9 µM
OVCAR-5 ovarian
  TGI: > 100 µM
SNB-75 CNS
  GI50: 2.91 µM
  TGI: 15.9 µM

## FC(F)(F)c1nc(-c2ccccc2Cl)[nH]c1C(F)(F)F
SNB-19 CNS
  TGI: 8.27 µM
SK-MEL-5 melanoma
  TGI: 0.833 µM
OVCAR-3 ovarian
  TGI: 3.68 µM
LOX IMVI melanoma
  TGI: 1.23 µM
OVCAR-4 ovarian
  TGI: 22.1 µM
ACHN renal
  TGI: 2.65 µM
SNB-75 CNS
  TGI: 5 µM

## N#CC1(c2nc3ccccc3o2)C(=O)C(=O)N(C2C3CC4CC(C3)CC2C4)C(=O)C1=O (stereo unspecified)
SNB-19 CNS
  TGI: > 100 µM
SK-MEL-5 melanoma
  TGI: > 100 µM
A498 renal
  TGI: > 100 µM
OVCAR-3 ovarian
  TGI: > 100 µM
LOX IMVI melanoma
  TGI: > 100 µM
OVCAR-4 ovarian
  TGI: > 100 µM
ACHN renal
  TGI: > 100 µM
OVCAR-5 ovarian
  TGI: > 100 µM
SNB-75 CNS
  TGI: > 100 µM

## C=CCSC[C@H](NC(=O)COc1ccccc1)C(=O)NC(C(=O)OCc1ccc([N+](=O)[O-])cc1)=C(C)C
SK-MEL-5 melanoma
  TGI: > 100 µM
A498 renal
  TGI: > 100 µM
OVCAR-3 ovarian
  TGI: > 100 µM
LOX IMVI melanoma
  TGI: > 100 µM
OVCAR-4 ovarian
  TGI: > 100 µM
ACHN renal
  TGI: > 100 µM
SNB-75 CNS
  TGI: > 100 µM

## COC(=O)C1OC(O[C@H]2CCC3(C)C(CCC4(C)C3CC=C3C5CC(C)(C)CCC5(C(=O)O)CC[C@]34C)C2(C)C)C(O)C(OC2OC(CO)C(O)C(O)C2O)C1O (stereo partly specified)
SNB-19 CNS
  GI50: 6.82 µM
  TGI: 15.5 µM
SK-MEL-5 melanoma
  GI50: 6.14 µM
  TGI: 11.4 µM
PC-3 prostate
  GI50: 6.43 µM
  TGI: 11.8 µM
OVCAR-3 ovarian
  GI50: 13.9 µM
  TGI: > 33.3 µM
LOX IMVI melanoma
  GI50: 6.27 µM
  TGI: 11.7 µM
ACHN renal
  GI50: 5.99 µM
  TGI: 10.7 µM
OVCAR-5 ovarian
  GI50: 7.31 µM
  TGI: 13.5 µM

## CN(C)/C(=N/C(=S)Nc1ccccc1)SCc1ccccc1
SNB-19 CNS
  TGI: > 100 µM
SK-MEL-5 melanoma
  TGI: > 100 µM
A498 renal
  TGI: > 100 µM
OVCAR-3 ovarian
  TGI: > 100 µM
LOX IMVI melanoma
  TGI: > 100 µM
OVCAR-4 ovarian
  TGI: > 100 µM
ACHN renal
  TGI: > 100 µM
OVCAR-5 ovarian
  TGI: > 100 µM
SNB-75 CNS
  TGI: > 100 µM

## CCCCCCCCCCCCCCCC(=O)NCC(COP(=O)([O-])OCC[N+](C)(C)C)OCC (stereo unspecified)
SNB-19 CNS
  TGI: 11 µM
SK-MEL-5 melanoma
  TGI: 33.9 µM
OVCAR-3 ovarian
  TGI: 18.9 µM
LOX IMVI melanoma
  TGI: 34.4 µM
OVCAR-4 ovarian
  TGI: 17.7 µM
ACHN renal
  TGI: 29.1 µM
OVCAR-5 ovarian
  TGI: 22 µM
SNB-75 CNS
  TGI: 23 µM

## O=C1CCCN(c2ccccc2)N1
SNB-19 CNS
  TGI: > 100 µM
SK-MEL-5 melanoma
  TGI: > 100 µM
A498 renal
  TGI: > 100 µM
OVCAR-3 ovarian
  TGI: > 100 µM
LOX IMVI melanoma
  TGI: > 100 µM
OVCAR-4 ovarian
  TGI: > 100 µM
ACHN renal
  TGI: > 100 µM
OVCAR-5 ovarian
  TGI: > 100 µM
SNB-75 CNS
  TGI: > 100 µM

## CCOC(=O)C1=C(C)Nc2ccccc2S1
SNB-19 CNS
  TGI: > 100 µM
SK-MEL-5 melanoma
  TGI: > 100 µM
A498 renal
  TGI: > 100 µM
OVCAR-3 ovarian
  TGI: > 100 µM
LOX IMVI melanoma
  TGI: > 100 µM
OVCAR-4 ovarian
  TGI: > 100 µM
ACHN renal
  TGI: > 100 µM
OVCAR-5 ovarian
  TGI: > 100 µM
SNB-75 CNS
  TGI: > 100 µM
